pIC50, pKi: −log10 of the molar value.
Tests used:
Translocator protein [1] = biological target: T1, Translocator protein (Rattus norvegicus, UniProt P16257); assay: Inhibition of binding of [3H]-PK 11195 to peripheral-type benzodiazepine receptor (PBR) from rat cortex homogenate
Translocator protein [2] = biological target: T1, Translocator protein; assay: Displacement of [3H]-Ro- 5-4864 from rat adrenal peripheral-type benzodiazepine receptor (PBR)
Translocator protein [3] = biological target: T1, Translocator protein; assay: Binding affinity against peripheral-type benzodiazepine receptor (PBR) from rat cortex homogenate using [3H]-PK 11195 as radioligand
Translocator protein [4] = biological target: T1, Translocator protein; assay: Displacement [3H]-PK 11195 from rat adrenal peripheral-type benzodiazepine receptor (PBR)

T1 sequence (P16257 whole entry, looked up): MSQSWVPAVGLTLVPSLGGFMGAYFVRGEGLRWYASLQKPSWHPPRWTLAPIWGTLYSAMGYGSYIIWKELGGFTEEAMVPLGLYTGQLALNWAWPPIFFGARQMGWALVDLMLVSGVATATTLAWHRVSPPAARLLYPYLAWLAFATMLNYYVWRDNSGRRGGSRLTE

SMILES | pIC50 (Translocator protein [1]) | pKi (Translocator protein [2]) | pKi (Translocator protein [3]) | pKi (Translocator protein [4])
COc1ccc(C2=C(OC(=O)c3cccnc3)c3cccn3-c3ccccc3S2)cc1 | < 4.00 |  |  | 
CN(C)C(=O)OC1=C(c2ccccc2)Sc2c(Cl)cccc2-n2cccc21 |  | 8.59 | 8.74 | 8.60
CC(=O)OC1=C(c2ccc3ccccc3c2)Oc2ccccc2-n2cccc21 | 7.12 |  | 7.52 | 
CC(=O)OC1=C(c2ccccc2)Sc2ccc(C)cc2-n2cccc21 |  |  | 6.58 | 
COC(=O)C1=C(c2ccccc2)Oc2ccccc2-n2cccc21 | 6.83 |  | 7.24 | 
CC(=O)OCC1=C(c2ccccc2)Oc2ccccc2-n2cccc21 | 5.71 |  | 6.12 | 
CCC1=C(OC(C)=O)c2cccn2-c2ccccc2O1 | < 5.30 |  |  | 
CN(C)C(=O)OC1=C(c2ccc(N=[N+]=[N-])cc2)Oc2ccccc2-n2cccc21 | 8.44 | 8.44 | 8.85 | 8.32
CCN(CC)C(=O)OC1=C(c2ccc(C)cc2)Oc2ccccc2-n2cccc21 | 9.03 | 8.72 | 9.44 | 8.72
CCC1=C(OC(=O)N(C)C)c2cccn2-c2ccccc2O1 | 6.23 |  | 6.64 | 
CC(=O)OC1=C(c2ccc(C)cc2)Oc2ccccc2-n2cccc21 | 8.64 | 8.77 | 9.04 | 8.55
CC(=O)OC1=C(c2ccccc2)Sc2ccccc2-n2cccc21 |  |  | 8.12 | 
CN(C)C(=O)OC1=C(c2ccccc2)Sc2ccccc2-n2cccc21 |  |  | 8.46 | 
CC(=O)OC1=C(c2ccccc2)Sc2cc(C)ccc2-n2cccc21 |  |  | 7.36 | 
CC(=O)OC1=C(c2ccc(Cl)cc2)Sc2ccccc2-n2cccc21 |  |  | 7.93 | 
CCN(CC)C(=S)OC1=C(c2ccccc2)Oc2ccccc2-n2cccc21 | 8.42 |  | 8.82 | 
CC(=O)C1=C(c2ccccc2)Oc2ccccc2-n2cccc21 | 7.19 |  | 7.60 | 
CC(=O)OC1=C(c2ccccc2)Oc2ccccc2-n2cccc21 | 7.92 |  | 8.33 | 
CCN(CC)C(=O)OC1=C(c2ccccc2)Oc2ccccc2-n2cccc21 | 9.17 |  | 9.59 | 
CC(=O)OC1=C(c2ccccc2)Oc2cc3ccccc3cc2-n2cccc21 | 6.56 |  | 6.97 | 
CN(C)C(=O)OC1=C(c2ccccc2)Oc2c(Cl)cccc2-n2cccc21 | 8.89 |  | 9.29 | 
O=C(OC1=C(c2ccccc2)Oc2ccccc2-n2cccc21)C1CCCCC1 | 7.09 |  | 7.49 | 
